Assay results taken from patent publication US9526786B2, “Thermostabilization of proteins” (The Trustee of Columbia University in the City of New York, priority 2007, dated 2016).
Residue numbers refer to the chain shown, from its start. Entries after “also recorded” stand apart in the source; their conditions may differ. Like-named read-outs stand apart in the source and are kept apart here.

Legend:
CocE [1] = biological target: T1, CocE (Rhodococcus sp., UniProt Q9L9D7); assay: Effect of DTT on decay of CocE activity at 37° C.; type: biochemical, Rhodococcus sp. MB 1; settings: DTT 10 mM
T1 construct: 6xHis (C); made in house; host or cells: E. coli BL-21 Gold (DE3), pET-22b(+)
T1 sequence (Q9L9D7 1-574): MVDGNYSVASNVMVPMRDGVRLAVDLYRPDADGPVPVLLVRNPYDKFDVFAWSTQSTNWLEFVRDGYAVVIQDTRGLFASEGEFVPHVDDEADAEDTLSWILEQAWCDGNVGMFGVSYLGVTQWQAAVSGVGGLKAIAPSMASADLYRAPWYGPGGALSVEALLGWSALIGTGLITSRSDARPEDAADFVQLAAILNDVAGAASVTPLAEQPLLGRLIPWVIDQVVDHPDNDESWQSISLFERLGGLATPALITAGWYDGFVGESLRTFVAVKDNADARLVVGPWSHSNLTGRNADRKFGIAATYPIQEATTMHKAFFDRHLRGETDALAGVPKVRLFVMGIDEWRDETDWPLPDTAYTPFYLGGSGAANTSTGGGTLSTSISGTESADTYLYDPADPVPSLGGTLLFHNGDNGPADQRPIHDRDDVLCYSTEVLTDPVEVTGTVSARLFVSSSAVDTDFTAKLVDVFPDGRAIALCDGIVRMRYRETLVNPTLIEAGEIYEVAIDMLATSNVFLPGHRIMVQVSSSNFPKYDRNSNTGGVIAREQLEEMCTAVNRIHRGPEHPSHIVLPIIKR
Method: (§1) In vitro kinetic assays. […] Initial rates were then used to determine Michaelis-Menten parameters. To assess thermal stability, enzyme preparations were preincubated at 37° C. for various lengths of time, prior to measurement of residual activities (Table 1 and FIG. 23).

CocE [2] = biological target: T1, CocE; type: biochemical, Rhodococcus sp. MB 1
Method: Analysis of CocE action on cocaine cleavage is performed by utilizing the spectroscopic properties of cocaine, which maximally absorbs light at a 240 nm wavelength. CocE activity is measured by monitoring for a decrease in signal at A240, using various concentrations of cocaine, and determining the initial rate of the decrease. From these values the Vmax of the enzyme can be determined. By pre-incubating the enzyme at 37° C. for various times before monitoring for activity, the half life of CocE at 37° C. can be calculated.
The initial rates (of decay) were determined by following the change in the intrinsic absorbance of cocaine at 240 nm (6700 M^1 cm^1)(Xie et al., 1999) using a SpectraMax Plus 384 UV plate reader (Molecular Devices, Sunnyvale, Calif.) using SOFTmax Pro software (Version 3.1.2). The reaction was initiated by adding 100 μL of a 2× enzyme solution (100 mM phosphate buffer, pH 7.4 and 300 mM NaCl) to 100 μL of a 2× cocaine solution (50 μg/mL enzyme, 100 mM Phosphate Buffer, pH 7.4 and 300 mM NaCl). All assays were performed with 100 μM DTT unless indicated otherwise. Final cocaine concentrations were as follows: 125, 62.5, 31.25, 15.63, 7.81, 3.91, 1.95, and 0.977 μM. Vmax and Km values were calculated using Prism (GraphPad Software, San Diego). For stability measurements, wild type and mutant enzymes were diluted to 2× concentration and incubated at 37° C. for the times indicated. At the end of each time point, an aliquot was removed and kinetic behavior was observed as outlined above.
as §1

CocE [3] = biological target: T1, CocE; assay: Screen for stabilization of CocE: 1 hour at 37° C., then 4-nitrophenyl acetate cleavage; type: biochemical, Rhodococcus sp. MB 1; settings: forty compounds tested
Method: However all of these small molecules inhibited enzyme activity to certain degrees. It was evaluated whether there might exist a small molecule that could prevent CocE aggregation, without inhibiting enzyme activity. Such a molecule could be used as a stabilizer in vitro, e.g., during enzyme preparation, and in vivo. An assay was designed to screen a library of 20,000 small molecules for stabilization of CocE. In that assay, the enzyme is mixed with the compounds in a 96-well plate format, and then incubated at 37° C. for one hour. […] After 37° C. incubation, the enzyme/compound mixtures are tested for the ability to cleave 4-nitrophenyl acetate (FIG. 8). Only compounds stabilized would be able to cleave after this incubation period.
Forty compounds were first tested. The compounds were assayed in duplicate with appropriate controls. A duplicate plate (without enzyme) was performed as a negative control, to check for compounds able to cause an increase in 400 nm absorbance in the absence of CocE. […] Some were able to do this in the absence of CocE. These were discarded as false positives.
FIG. 9 is a plot of the initial rate of 4-nitrophenyl acetate cleavage for all compounds, after the background “no enzyme” cleavage was subtracted. […]

CocE [4] = biological target: T1, CocE; type: biochemical, Rhodococcus sp. MB 1; remark: listed apart in the source
Method: CocE is also able to cleave another substrate, 4-nitrophenyl acetate (FIG. 3). Cleavage is monitored by detection of the appearance of the 4-nitrophenol reaction product, which absorbs at 400 nm.
Further spectrophotometric analysis of cocaine stabilization was performed, by analyzing the ability of CocE to cleave 4-nitrophenyl acetate, after preincubation at 37° C. for various times, in the presence of various concentrations of cocaine. […] However, preincubation of CocE at the higher concentrations for various times at 37° C. indicated the enzyme was stabilized enough to be able to cleave the 4-nitrophenyl substrate (FIG. 5).

WT CocE = biological target: T2, WT CocE (Rhodococcus sp., UniProt Q9L9D7); settings: for melting temperature of WT CocE in presence of compound: excess benzoic acid, 5× molarity phenylboronic acid, 6031818
T2 sequence (Q9L9D7 1-574): T1 sequence (Q9L9D7 1-574)
Method: Further characterization of the stability of wild type (WT) CocE and thermostable mutants was performed through circular dichroism, which detects small changes in protein conformation and structure. Analysis by repeated CD measurements at increasing temperatures allows analysis of the thermodynamics and melting temperature (TM) of the protein, so long as the melting is reversible (i.e. the protein resumes it's original conformation upon cooling). […] However CD is still of value in determining the temperature to unfolding.

CocE mutant L169K = biological target: T3, CocE mutant L169K (Rhodococcus sp., UniProt Q9L9D7, L169K); assay: Circular dichroism melting of L169K in the presence of phenylboronic acid; type: physicochemical, Rhodococcus sp. MB 1
T3 construct: 6xHis (C); made in house; host or cells: E. coli BL-21 Gold (DE3), pET-22b(+)
T3 sequence (Q9L9D7 1-574 L169K): T1 sequence (Q9L9D7 1-574) with L169K
Method: CD analysis of another CocE mutant, L169K, established a ˜65° C. melting temperature alone, and ˜85° C. melting temperature in the presence of phenylboronic acid (FIG. 18), i.e. phenylboronic acid conferred an additional 20° C. melting to the already high original melting temperature for L169K.

CocE WT = biological target: T4, CocE WT (Rhodococcus sp., UniProt Q9L9D7); assay: Inhibition of CocE WT aggregate formation, non-denaturing gel, 1 hour at 37° C.; set-up: species or system Rhodococcus sp. MB 1; settings: read-out: 50% stabilization concentration
T4 construct: 6xHis (C); made in house; host or cells: E. coli BL-21 Gold (DE3), pET-22b(+)
T4 sequence (Q9L9D7 1-574): T1 sequence (Q9L9D7 1-574)
Excerpt: To further study CocE stabilization with small molecules, other inhibitors of the CocE cleavage reaction were considered.

[5] = cocaine: 62.5 and 125 μM, benzoic acid: higher concentrations

SMILES	effectiveness in stabilization screen (CocE [3])	inhibition of 4-nitrophenyl acetate cleavage (CocE [4]; [5])	inhibition of cocaine cleavage (CocE [2])	melting temperature of WT CocE in presence of compound (WT CocE) [°C]	other results
O[C@@H](CS)[C@@H](O)CS [DTT]	–	–	–	–	effect on decay / τinact of wt-CocE (CocE [1]): shortens; also recorded: accelerate the decay; Ki (CocE [2]; cocaine hydrolysis, mixed competitive and non-competitive): ~380 µM; IC50 (CocE [2]; wt-CocE): ~390 µM
COc1ccc(OC)c(N(CC(=O)N2CCCCC2)S(=O)(=O)c2ccccc2)c1 [compound 6169221]	effective	did not inhibit	did not inhibit	–	–
CCOc1ccccc1N(CC(=O)N1CCCCC1)S(=O)(=O)c1ccccc1 [compound 6031818]	most effective	weak inhibitor	does not inhibit	~42	inhibition of 4-nitrophenyl acetate cleavage (CocE [4]): 16 µM
OB(O)c1ccccc1 [Phenylboronic acid, phenylboronic acid]	–	–	–	73	melting temperature higher than the T172R mutant (WT CocE; WT CocE with compound): more than 30 degrees; additional melting conferred to L169K (CocE mutant L169K): 20 °C; melting temperature of L169K in presence of compound (CocE mutant L169K): ~85 °C; EC50 (CocE WT): ~200 nM
